In patent US10385400B2, “Methods and kits for monitoring response to radiation therapies in cancer” (RNA Diagnostics Inc., priority 2012, dated 2019):
Read-outs that look alike come from different tables or passages of the source.

How the values were obtained:
[1] = test system: A2780 ovarian tumour cells; assay: RNA concentration and RIN in A2780 cells after radiation with or without docetaxel; assay type: cell-based
Method: Experiments were conducted to assess whether radiation with or without docetaxel treatment could induce changes in cellular RNA concentration and/or RIN values in A2780 ovarian tumour cells. […] In contrast under the tested conditions, radiation doses up to 5 Gray had no effect on cellular RNA integrity, as no changes in RIN values were observed compared to samples prior to radiation treatment (FIG. 5B). If cells were pre-incubated for 24 hours with 0.1 μM docetaxel prior to 10 Gray radiation treatment, the cellular RIN value decreased to 75% of pre-treatment values. There were additional decreases in RIN when radiation and chemotherapy were used together concurrently. […] Moreover, the combination of both radiation and docetaxel treatment induces even stronger reductions in both cellular RNA content and RNA integrity. These observations are consistent with those described above for tumours of patients with locally advanced breast cancer, in particular for the combined therapy post-treatment, where RNA concentration fell dramatically in response to FEC-D chemotherapy with concurrent radiation therapy and where differences between between responding patients (pCR) and non-reponding patients (no pCR) appeared to be observed post-treatment.

[2] = test system: SKBR3 breast tumour cells; assay: RNA concentration and RIN in SKBR3 cells after radiation with or without docetaxel; assay type: cell-based
Method: It was then examined whether similar observations could be observed in vitro for specific breast tumour cell lines. […] If cells were pre-treated with 0.1 μM docetaxel prior to 10 Gray radiation, a 5-fold reduction in cellular RNA concentration was observed (19% of untreated cells). RNA concentration decreases 2 fold (or more) in BT-20, A2780 and MB-468 cells with radiation only. […] Concurrent docetaxel treatment with radiation therapy dramatically reduces cellular RNA content, consistent with the observed findings for patients with locally advanced breast cancer treated with FEC-D chemotherapy followed by radiation treatment. Similar findings were observed when the effects of the above treatments on RIN values were examined in SKBR3 (HER2+, ER−) cells (FIG. 6B).

[3] = test system: MCF-7 breast tumour cells; assay: RNA concentration and RIN in MCF-7 cells after radiation with or without docetaxel; assay type: cell-based
Method: The effects of the above treatments on MCF-7 (ER+, HER2−) cells (FIGS. 7A and 7B) were examined, findings were similar to those of SKBR3 cells, with 4% and 73% reductions in RNA levels observed for the 10 Gray and 10 Gray/0.1 μM docetaxel treatments, respectively. […] Moreover, only a 4% reduction in cellular RIN values were observed when cells were pre-treated with 0.1 μM docetaxel prior to the 10 Gray radiation.

A2780 cells [4] = assay: A2780 cells treated with 5 nM Docetaxel, 10 Gy radiation or both for 72 or 96 hours (RIN, RDI); assay type: cell-based; conditions: n=3
Method: In another experiment, A2780 cells were treated with 5 nM Docetaxel, 10 Gy Radiation and 10 Gy Radiation+5 nM Docetaxel for 72 hours or 96 hours.

[5] = test system: anthracycline-resistant metastatic breast cancer; conditions: cited from earlier work
metastatic breast cancer = conditions: cited from earlier work
[6] = test system: breast cancer, T1c-T3 N0-N1 disease; conditions: preoperative AC alone versus AC with addition of docetaxel; cited from earlier work
[7] = test system: breast cancer, T3, T4 or TxN2 disease; conditions: cited from earlier work
A2780 cells [8] = assay: A2780 cells treated with increasing doses of Epirubicin with and without 10 Gy radiation (RIN, RDI, RNA concentration); assay type: cell-based; conditions: with 10 Gy radiation, 96 h post-radiation
Method: A2780 cells were treated with increasing doses of Epirubicin with and without 10 Gy radiation.A2780 cells were plated into 6 cm plates in 4 ml of RPMI culture medium. The plates were placed in the incubator and the cells were allowed to adhere overnight. The next day, the medium was removed from all plates and new media containing the appropriate epirubicin concentration (1 pM, 5 pM, 20 nM, 50 nM, and 100 nM) was added to the plates. Cells were pre-treated for 24 h with epirubicin prior to receiving radiation treatment. The following day (24 h post epirubicin drug-treatment), the cells were given 10 Gy of x-ray radiation treatment (300 kV, 9 mA) in approximately 4.3 min of x-ray exposure using a RS320 Irradiation System (Gulmay Medical) The cells were returned to the cell culture incubator, and RNA was extracted from the cells 96 h post-radiation treatment (which corresponds to 120 h post-epirubicin treatment).

MCF-7 cells = MCF-7 cells treated with increasing doses of Epirubicin with and without 10 Gy radiation (RIN, RDI, RNA concentration); assay type: cell-based
Method: FIG. 9: Graphs of MCF-7 cells were treated with increasing doses of Epirubicin with and without 10 Gy radiation. A) RIN value vs. Epirubicin; B) RDI value vs. Epirubicin; C) RNA concentration vs. Epirubicin Dose.

[9] = test system: stage IIB to III locally advanced breast cancer; conditions: cited from earlier work
[10] = test system: locally advanced breast cancer; conditions: paclitaxel 175 mg/m^2 and 5FU with 50.4 Gy, then 3 cycles of FEC, then surgery; 23 patients; cited from earlier work
[11] = pre-treated with 0.1 μM docetaxel prior to 10 Gray radiation
[12] = 35 mg/m^2 weekly for 3 of every 4 weeks
[13] = after 4 cycles of CVAP, 4 cycles of docetaxel versus 4 more cycles of CVAP, intention-to-treat
[14] = paclitaxel 30 mg/m^2 twice weekly with radiation to 45 Gy, then surgery

SMILES: CC(=O)O[C@@]12CO[C@@H]1C[C@H](O)[C@@]1(C)C(=O)[C@H](O)C3=C(C)[C@@H](OC(=O)[C@H](O)[C@@H](NC(=O)OC(C)(C)C)c4ccccc4)C[C@@](O)([C@@H](OC(=O)c4ccccc4)[C@H]21)C3(C)C [docetaxel]
- effect of concurrent docetaxel on radiation-induced reduction of RNA content and integrity ([1]; 0.1 μM docetaxel, 10 Gray): strongly augmented
- cellular RIN value, % of pre-treatment values ([1]; pre-incubated 24 hours with 0.1 μM docetaxel prior to 10 Gray radiation): 75%
- additional reduction of cellular RNA concentration ([1]; pre-incubation with 0.1 μM docetaxel, 10 Gray radiation, versus radiation alone): 6.5 fold
- effect of concurrent docetaxel on effects of radiation on RNA content and RNA integrity ([2]; 0.1 μM docetaxel, 10 Gray): strongly augmented
- cellular RNA concentration, % of untreated cells [2, 11]: 19%
- reduction in cellular RNA concentration [2, 11]: 5 fold
- reduction in cellular RIN values ([2]; radiation, cells pre-treated with docetaxel): 9%
- effect of concurrent docetaxel on effect of radiation on RNA content and integrity ([3]; 0.1 μM docetaxel, 10 Gray): only slightly augmented
- reduction in RNA levels ([3]; 10 Gray/0.1 μM docetaxel): 73%
- reduction in cellular RIN values [3, 11]: 4%
- mean RDI value (A2780 cells [4]; 10 Gy radiation + 5 nM Docetaxel compared with Docetaxel alone, 96 hr): increase in RDI value
- mean RIN value (A2780 cells [4]; 10 Gy radiation + 5 nM Docetaxel, 72 hr): increased loss in RIN value
- response rates [5]: up to 50%
- overall survival (OS) (metastatic breast cancer; [12]): 18.6 months
- progression-free survival (metastatic breast cancer; [12]): 5.5 months
- overall survival (OS) (metastatic breast cancer; 100 mg/m^2 every 3 weeks): 18.3 months
- progression-free survival (metastatic breast cancer; 100 mg/m^2 every 3 weeks): 5.7 months
- overall serious toxicity (metastatic breast cancer; Q 3-week arm): 88.1%
- overall serious toxicity (metastatic breast cancer; weekly arm): 55.9%
- clinical complete response (cCR) [6]: 63.6%
- pCR [6]: 26.1%
- proportion of patients with negative nodes [6]: 58.2%
- DFS ([7]; 38 months median follow-up): 90%
- OS ([7]; 38 months median follow-up): 97%
- cCR [7, 13]: 94%
- pCR [7, 13]: 31%

SMILES: COc1cccc2c1C(=O)c1c(O)c3c(c(O)c1C2=O)C[C@@](O)(C(=O)CO)C[C@@H]3O[C@H]1C[C@H](N)[C@@H](O)[C@H](C)O1 [Epirubicin]
- RIN value vs Epirubicin dose (A2780 cells [8]; low doses of Epirubicin): loss in RIN value
- RDI value vs Epirubicin dose (A2780 cells [8]; low drug doses): RDI values increase
- RNA concentration vs Epirubicin dose (A2780 cells [8]; low drug doses): increased loss in RNA concentration
- RIN value vs Epirubicin dose (MCF-7 cells; combined with 10 Gy radiation): loss in RIN value
- RNA concentration vs Epirubicin dose (MCF-7 cells; increasing doses of Epirubicin): loss in RNA concentration
- RDI value vs Epirubicin dose (MCF-7 cells; with radiation, up to 100 uM Epirubicin): increase in RDI value

SMILES: CC(=O)O[C@H]1C(=O)[C@@]2(C)[C@H]([C@H](OC(=O)c3ccccc3)[C@]3(O)C[C@H](OC(=O)[C@H](O)[C@@H](NC(=O)c4ccccc4)c4ccccc4)C(C)=C1C3(C)C)[C@]1(OC(C)=O)CO[C@@H]1C[C@@H]2O [paclitaxel]
- patients achieving a pCR [9, 14]: Sixteen
- patients achieving a pPR [9, 14]: 18%
- grade 4 leucopenia ([9]; postoperative phase): 10%
- grade 4 toxicities ([9]; preoperative chemoradiation phase, paclitaxel 30 mg/m^2 twice weekly with radiation to 45 Gy): No grade 4 toxicities were observed
- clinical CR [10]: 82.6%
- overall 2-year survival [10]: 80.7%
- pCR [10]: 52.2%
